# Patent US11918615B2, “Anti-inflammatory botanical extract” (Innophos, LLC, priority 2018, dated 2024)
# Test system: potato 5-Lipoxygenase enzyme
# Test: Lipoxygenase Inhibitor Screening Assay Kit (Cayman), hydroperoxide formation, absorbance 492 nm
# Assay type: biochemical
# Settings: positive control at 100 μM
# Protocol: Extracts of cranberry fruit (E1) and cranberry leaf (E2) were prepared with food-grade ethanol, and then filtered and dried as described above. Research grade reagents were used for the rest of the assay preparations. Extracts were dissolved in dimethyl sulfoxide (‘DMSO’) to a final concentration of 50 mg/mL, and then diluted in appropriate buffer for each bioassay to working concentrations.
# Cranberry fruit extract (E1) and cranberry leaf extract (E2) were tested for 5-LOX inhibition using the Lipoxygenase Inhibitor Screening Assay Kit (available from Cayman Chemical, Ann Arbor, Michigan, US) and potato 5-Lipoxygenase enzyme (available from Cayman Chemical). This kit measures hydroperoxides produced in the lipoxygenation reaction.
# The extracts were dissolved in methanol to final working concentrations. 5-LOX enzyme, Chromagen, and Linoleic Acid solutions were prepared immediately before use. Nordihydroguaiaretic acid (‘NDGA’) was used as a positive control. 5-LOX enzyme was added to the test samples and controls and incubated for five minutes at room temperature to allow for enzyme/inhibitor interaction. Linoleic acid substrate was added to the plate to initiate the reaction, and the plate was then shaken at room temperature for 10 minutes. […] The absorbance was then read at 492 nm. Percent inhibition of the extract concentration was calculated in comparison to the uninhibited control wells. […]
smiles,measurement,value
"CC(Cc1ccc(O)c(O)c1)C(C)Cc1ccc(O)c(O)c1 (stereo not shown) [NDGA, Nordihydroguaiaretic acid]",5-LOX enzyme inhibition,100%
